# Experimental data: patent US5627193A, “Quinoline-4-carbonylguanidine derivatives, process for producing the same and pharmaceutical preparations containing the compounds” (Mitsui Toatsu Chemicals, Inc., priority 1995, dated 1997)
# Columns and labels:
# [1] = biological target: T1, NHE (Na^+ /H^+ exchanger) (Rattus norvegicus, UniProt P26431); assay: NHE inhibitory activity (recovery of the pH in cells after acid load, BCECF, rat mesenteric artery); format: cell-based; details: read-out: Percent NHE inhibition (%); for inhibition at 0.1 µM: Conc. 0.1 μM; for inhibition at 1 µM: Conc. 1 μM
# T1 construct: A rat mesenteric artery was isolated; from tissue; host or cells: isolated rat mesenteric artery segments
# Procedure: The NHE inhibitory activity was measured by the following method using a pH in cells as an index.
# A rat mesenteric artery was isolated, and was loaded with a pH-sensitive dye BCECF. Subsequently, the tissue segments were mounted in a bath of an intracellular ion concentration measurement device (CAF-110, manufactured by Japan Spectral Co., Ltd.). The pH in cells was measured in terms of a ratio of fluorescent intensities through 2-wavelength excitation of 495 nm (pH-sensitive wavelength)/450 nm (pH-non-sensitive wavelength).
# The pH in cells was shifted into acid through pretreatment with 20 mM ammonium chloride to activate NHE. At this time, when Na^+ ions were absent in an external solution, the intracellular acidosis was maintained. When Na^+ ions were present in an external solution, the pH in cells was recovered to a control value. This recovery of the pH in cells was ascribable to the activation of NHE. The NHE inhibitory activity of the medication was examined depending on whether or not this recovery was suppressed. The percent NHE inhibition was calculated from a change in pH (ΔpH) measured by the above-mentioned method using the following formula.
# Percent NHE inhibition (%)={1-ΔpH (in the presence of a medication)/ΔpH (in the absence of a medication)}×100
# This test was conducted by the method of C. D. Foster et al. [Am. J. Physiol., 262, 31, H1651-H1655 (1992)]. For comparison, the test was conducted with respect to guanidinocarbonylisoquinoline derivatives described in JP A 6-211799 (Family: EP590455).
# rat = assay: Effect on ischemic arrhythmia in the rat (left coronary artery ligated for 30 minutes); format: in vivo; details: 1 mg/kg i.v., five minutes before the ligation; rats with arrhythmia / rats
# Procedure: A rat was anesthetized with pentobarbital, and the left chest was opened under artificial respiration. Then, the left coronary artery was ligated for 30 minutes. The effect of the test compound on ischemic arrhythmia was examined. The test agent was administered intravenously (i.v.) five minutes before the ligation. The arrhythmias were evaluated according to the guidelines of the Lambeth conventions [Cardiovasc. Res., 22, 447-455 (1988)].
# [2] = Toxicity test, mortality of mice after 24 hours; details: mouse, in vivo, iv, 100 mg/kg (i.v.), 3 mice
# Procedure: The test compound was administered to a ddy-strain male mouse, and the toxicity was examined. The test compound was administered intravenously (i.v.) in a dose of 100 mg/kg, and the toxicity was evaluated in terms of mortality of mice after 24 hours of the administration (number of specimens: one group consisting of 3 mice).
# cardiac hypertrophy = details: Circulation, 86 (Suppl. I) I-177 (1992); cited from earlier work
# T1 sequence (P26431 whole entry): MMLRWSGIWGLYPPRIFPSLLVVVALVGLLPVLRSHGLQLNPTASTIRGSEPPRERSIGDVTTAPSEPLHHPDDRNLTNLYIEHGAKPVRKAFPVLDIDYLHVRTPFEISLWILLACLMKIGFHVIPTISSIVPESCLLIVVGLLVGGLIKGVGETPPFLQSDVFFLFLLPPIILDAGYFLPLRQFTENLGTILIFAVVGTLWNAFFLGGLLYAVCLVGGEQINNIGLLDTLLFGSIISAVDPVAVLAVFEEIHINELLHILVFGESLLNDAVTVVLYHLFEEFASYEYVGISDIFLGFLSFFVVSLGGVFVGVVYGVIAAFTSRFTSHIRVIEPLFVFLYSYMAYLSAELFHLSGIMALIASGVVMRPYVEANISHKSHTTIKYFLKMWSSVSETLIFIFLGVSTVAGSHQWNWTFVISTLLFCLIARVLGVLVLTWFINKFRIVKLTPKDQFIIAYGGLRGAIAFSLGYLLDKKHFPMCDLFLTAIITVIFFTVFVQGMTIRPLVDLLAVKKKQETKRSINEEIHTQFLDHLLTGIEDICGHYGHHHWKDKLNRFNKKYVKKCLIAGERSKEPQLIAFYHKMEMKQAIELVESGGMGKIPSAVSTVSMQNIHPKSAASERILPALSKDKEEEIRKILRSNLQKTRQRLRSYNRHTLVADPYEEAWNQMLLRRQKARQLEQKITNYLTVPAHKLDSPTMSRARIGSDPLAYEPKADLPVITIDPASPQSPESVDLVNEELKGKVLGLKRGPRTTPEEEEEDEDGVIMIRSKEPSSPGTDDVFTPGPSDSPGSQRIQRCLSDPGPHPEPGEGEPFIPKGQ
# T1 sequence (P61023 2-195 partner limits assumed): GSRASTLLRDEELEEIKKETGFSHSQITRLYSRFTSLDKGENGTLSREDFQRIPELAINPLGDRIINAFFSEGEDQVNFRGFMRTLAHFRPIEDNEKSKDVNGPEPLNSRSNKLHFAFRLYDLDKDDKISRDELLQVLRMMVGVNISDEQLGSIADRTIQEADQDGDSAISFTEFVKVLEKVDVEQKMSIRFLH
inhibition at 0.1 µM [1] [%],inhibition at 1 µM [1] [%],SMILES,"Incidence of arrhythmia, VF (ventricular fibrillation) (rat)","Incidence of arrhythmia, VT (ventricular tachycardia) (rat)",mortality at 24 h [2] [%],suppression of cardiac hypertrophy (cardiac hypertrophy)
18.3,31,"COc1cc(OC)c2nc(-c3ccccc3)cc(C(=O)N=C(N)N)c2c1 [Example 40, 2-phenyl-6,8-dimethoxyquinoline-4-carbonylguanidine]",,,,
39.3,48.8,"Cc1ccccc1-c1cc(C(=O)N=C(N)N)c2ccc(O)cc2n1 [Example 46, 2-(2'-methylphenyl)-7-hydroxyquinoline-4-carbonylguanidine]",,,,
3.4,41.5,"COc1cc2nc(-c3ccccc3C)cc(C(=O)N=C(N)N)c2cc1OC [Example 39, 2-(2'-methylphenyl)-6,7-dimethoxyquinoline-4-carbonylguanidine]",,,,
70.8,84.2,"COc1cc(OC)c2c(C(=O)N=C(N)N)cc(-c3ccccc3C)nc2c1 [Example 37, 2-(2'-methylphenyl)-5,7-dimethoxyquinoline-4-carbonylguanidine]",0/5,3/5,,
30.6,41.7,"NC(N)=NC(=O)c1cc(-c2ccccc2)nc2c(N)cccc12 [Example 48, 2-phenyl-8-aminoquinoline-4-carbonylguanidine]",,,,
28.4,62.9,"COCCOc1cccc2c(C(=O)N=C(N)N)cc(-c3ccccc3)nc12 [Example 44, 2-phenyl-8-methoxyethyloxyquinoline-4-carbonylguanidine]",,,,
35,46.5,"COCOc1ccc2c(C(=O)N=C(N)N)cc(-c3ccccc3C)nc2c1 [Example 45, 2-(2'-methylphenyl)-7-methoxymethyloxyquinoline-4-carbonylguanidine]",,,,
46.2,66.2,"CS(=O)(=O)Nc1cccc2c(C(=O)N=C(N)N)cc(-c3ccccc3)nc12 [Example 50, 2-phenyl-8-methanesulfonylaminoquinoline-4-carbonylguanidine]",,,,
28,37.6,"COc1ccc2c(C(=O)N=C(N)N)cc(-c3ccccc3C)nc2c1OC [Example 43, 2-(2'-methylphenyl)-7,8-dimethoxyquinoline-4-carbonylguanidine]",,,,
47.4,63.6,"COc1cccc2c(C(=O)N=C(N)N)cc(-c3ccccc3)nc12 [Example 35, 2-phenyl-8-methoxyquinoline-4-carbonylguanidine]",,,,
29.8,53,"COc1ccc2c(C(=O)N=C(N)N)cc(-c3ccccc3)nc2c1 [Example 34, 2-phenyl-7-methoxyquinoline-4-carbonylguanidine]",,,,
20.8,51.2,"CC(=O)Nc1cccc2c(C(=O)N=C(N)N)cc(-c3ccccc3)nc12 [Example 49, 2-phenyl-8-acetylaminoquinoline-4-carbonylguanidine]",,,,
53.2,69.9,"COc1cc(OC)c2c(C(=O)N=C(N)N)cc(-c3ccccc3)nc2c1 [Example 36, 2-phenyl-5,7-dimethoxyquinoline-4-carbonylguanidine]",0/4,2/4,,

# Second part, the compound before the results:
SMILES,inhibition at 0.1 µM [1] [%],inhibition at 1 µM [1] [%],"Incidence of arrhythmia, VF (ventricular fibrillation) (rat)","Incidence of arrhythmia, VT (ventricular tachycardia) (rat)",mortality at 24 h [2] [%],suppression of cardiac hypertrophy (cardiac hypertrophy)
"NC(N)=NC(=O)c1cc(-c2ccccc2C(F)(F)F)nc2ccccc12 [Example 11, 2-(2'-trifluoromethylphenyl)quinoline-4-carbonylguanidine]",22.7,46.1,,,,
"CC(C)c1ccccc1-c1cc(C(=O)N=C(N)N)c2ccccc2n1 [Example 5, 2-(2'-isopropylphenyl)quinoline-4-carbonylguanidine]",29.3,42.3,,,,
"Cc1ccc(-c2cc(C(=O)N=C(N)N)c3ccccc3n2)cc1 [Example 2, 2-(4'-methylphenyl)quinoline-4-carbonylguanidine]",10.6,41.4,,,,
"Cc1ccc(-c2cc(C(=O)N=C(N)N)c3ccccc3n2)cc1C [Example 7, 2-(3',4'-dimethylphenyl)quinoline-4-carbonylguanidine]",33.1,38.8,,,,
"Cc1ccc2nc(-c3ccccc3)cc(C(=O)N=C(N)N)c2c1 [Example 22, 2-phenyl-6-methylquinoline-4-carbonylguanidine]",28.9,57.9,,,,
"NC(N)=NC(=O)c1cc(-c2ccccc2)nc2c(Cl)cccc12 [Example 31, 2-phenyl-8-chloroquinoline-4-carbonylguanidine]",12,57,,,,
"Cc1cccc(-c2cc(C(=O)N=C(N)N)c3ccccc3n2)c1 [Example 3, 2-(3'-methylphenyl)quinoline-4-carbonylguanidine]",21.2,59.8,,,,
"Cc1ccc2c(C(=O)N=C(N)N)cc(-c3ccccc3)nc2c1 [Example 23, 2-phenyl-7-methylquinoline-4-carbonylguanidine]",2.8,49.8,,,,
"Cc1cc(C)c(-c2cc(C(=O)N=C(N)N)c3ccccc3n2)c(C)c1 [Example 8, 2-(2',4',6'-trimethylphenyl)quinoline-4-carbonylguanidine]",23.7,36.3,,,,
"COc1ccc(OC)c2c(C(=O)N=C(N)N)cc(-c3ccccc3C)nc12 [Example 42, 2-(2'-methylphenyl)-5,8-dimethoxyquinoline-4-carbonylguanidine]",72.7,89.1,0/4,2/4,0,
"NC(N)=NC(=O)c1cc(-c2ccccc2Cl)nc2ccccc12 [Example 14, 2-(2'-chlorophenyl)quinoline-4-carbonylguanidine]",28.8,34.3,,,,
"NC(N)=NC(=O)c1cc(-c2ccc(F)cc2)nc2ccccc12 [Example 13, 2-(4'-fluorophenyl)quinoline-4-carbonylguanidine]",14.4,39.8,,,,
"NC(N)=NC(=O)c1cc(-c2ccccc2)nc2cccc(Cl)c12 [Example 28, 2-phenyl-5-chloroquinoline-4-carbonylguanidine]",33.7,63.3,,,,
"NC(N)=NC(=O)c1cc(-c2cccc([N+](=O)[O-])c2)nc2ccccc12 [Example 19, 2-(3'-nitrophenyl)quinoline-4-carbonylguanidine]",22.3,35.6,,,,
"Cc1ccc(-c2cc(C(=O)N=C(N)N)c3ccccc3n2)c(C)c1 [Example 6, 2-(2',4'-dimethylphenyl)quinoline-4-carbonylguanidine]",36.4,55.3,,,,
"Cc1cc(Cl)cc2c(C(=O)N=C(N)N)cc(-c3ccccc3)nc12 [Example 32, 2-phenyl-6-chloro-8-methylquinoline-4-carbonylguanidine]",28.6,35.7,,,,
"Cc1cccc2c(C(=O)N=C(N)N)cc(-c3ccccc3)nc12 [Example 24, 2-phenyl-8-methylquinoline-4-carbonylguanidine]",8.1,50,,,,
"Cc1c(-c2ccccc2)nc2ccccc2c1C(=O)N=C(N)N [Example 21, 2-phenyl-3-methylquinoline-4-carbonylguanidine]",1.5,45,,,,
"NC(N)=NC(=O)c1cc(-c2ccccc2)nc2ccccc12 [Example 1, 2-phenylquinoline-4-carbonylguanidine]",5.2,52.8,,,,
"NC(N)=NC(=O)c1cc(-c2ccccc2)nc2ccc(Cl)cc12 [Example 29, 2-phenyl-6-chloroquinoline-4-carbonylguanidine]",0,38.6,,,,
"NC(N)=NC(=O)c1cc(-c2cccc(N)c2)nc2ccccc12 [Example 20, 2-(3'-aminophenyl)quinoline-4-carbonylguanidine]",36.2,42.2,,,,
"Cc1ccccc1-c1cc(C(=O)N=C(N)N)c2ccccc2n1 [Example 4, 2-(2'-methylphenyl)quinoline-4-carbonylguanidine]",49.2,65.6,,,,
N=C(N)NC(=O)c1nc(Cl)c(N)nc1N [amiloride],,,,,,suppresses cardiac hypertrophy
